Experimental data from the CheMixHub ionic liquid set.
“And” between values parts separate entries of the source, which are not always exact repeats. Identical values can stand only once. ± gives the uncertainty stated by the source.

Experiment: xn = mol fraction of the nth substance listed

CCCOCCO + COS(=O)(=O)[O-].Cn1cc[n+](C)c1
viscosity [mPa·s], 101 kPa
Settings | x2 = 0.00104 | x2 = 0.002597 | x2 = 0.004149 | x2 = 0.005696 | x2 = 0.007238 | x2 = 0.008775
293.15 K | 2.6 ± 0.03 | 2.63 ± 0.03 | 2.65 ± 0.03 | 2.67 ± 0.03 | 2.7 ± 0.03 | 2.73 ± 0.03
303.15 K | 2.15 ± 0.03 | 2.18 ± 0.03 | 2.21 ± 0.03 | 2.24 ± 0.03 | 2.27 ± 0.03 | 2.29 ± 0.03
313.15 K | 1.81 ± 0.03 | 1.84 ± 0.03 | 1.88 ± 0.03 | 1.91 ± 0.03 | 1.95 ± 0.03 | 1.99 ± 0.03

CCCC[n+]1ccn(C)c1.F[B-](F)(F)F + CS(C)=O
100 kPa
Settings | electrical conductivity, 298.15 K [S/m] | viscosity, 298.15 K | viscosity, 303.15 K [mPa·s] | viscosity, 308.15 K [mPa·s] | viscosity, 313.15 K [mPa·s]
x1 = 0.0192 | – | 3.4 ± 0.1 mPa·s | 2.9 ± 0.08 | 2.46 ± 0.06 | 2.17 ± 0.05
x1 = 0.0447 | – | 5.06 ± 0.12 mPa·s | 4.12 ± 0.1 | 3.28 ± 0.08 | 2.8 ± 0.06
x1 = 0.0661 | – | 6.29 ± 0.15 mPa·s | 5.13 ± 0.12 | 3.85 ± 0.09 | 3.2 ± 0.07
x1 = 0.0722 | 0.974 ± 0.01 | 3.144 ± 0.039 mPa·s | – | – | –
x1 = 0.0974 | – | 8.27 ± 0.19 mPa·s | 6.5 ± 0.15 | 4.89 ± 0.11 | 4.03 ± 0.09
x1 = 0.1622 | – | 12.79 ± 0.28 mPa·s | 9.68 ± 0.21 | 6.72 ± 0.15 | 5.22 ± 0.11
x1 = 0.1764 | – | 5.489 ± 0.068 mPa·s | – | – | –
x1 = 0.2138 | – | 16.68 ± 0.36 mPa·s | 12.57 ± 0.27 | 8.83 ± 0.19 | 6.86 ± 0.15
x1 = 0.2145 | 1.016 ± 0.01 | 6.836 ± 0.086 mPa·s | – | – | –
x1 = 0.2889 | – | 22.73 ± 0.49 mPa·s | 17.15 ± 0.37 | 11.9 ± 0.26 | 9.21 ± 0.2
x1 = 0.3225 | 0.831 ± 0.008 | 11.38 ± 0.14 mPa·s | – | – | –
x1 = 0.3735 | – | 30.07 ± 0.64 mPa·s | 22.87 ± 0.49 | 15.97 ± 0.34 | 12.58 ± 0.27
x1 = 0.4189 | 0.672 ± 0.007 | 17.2 ± 0.22 mPa·s | – | – | –
x1 = 0.4431 | – | 36.58 ± 0.78 mPa·s | 27.97 ± 0.6 | 19.78 ± 0.42 | 15.65 ± 0.33
x1 = 0.5247 | – | 44.65 ± 0.95 mPa·s | 34.44 ± 0.74 | 24.63 ± 0.53 | 19.75 ± 0.42
x1 = 0.607 | 0.436 ± 0.004 | 34 ± 0.43 mPa·s | – | – | –
x1 = 0.6172 | – | 54.3 ± 1.1 mPa·s | 42.3 ± 0.9 | 30.73 ± 0.66 | 24.85 ± 0.53
x1 = 0.6557 | 0.352 ± 0.004 | 38.87 ± 0.49 mPa·s | – | – | –
x1 = 0.6772 | – | 61 ± 1.3 mPa·s | 47.6 ± 1 | 34.97 ± 0.74 | 28.49 ± 0.6
x1 = 0.7513 | – | 69.5 ± 1.5 mPa·s | 54.7 ± 1.1 | 40.59 ± 0.86 | 33.35 ± 0.71
x1 = 0.7958 | – | 75 ± 1.6 mPa·s | 59.2 ± 1.3 | 44.05 ± 0.94 | 36.37 ± 0.77
x1 = 0.8283 | 0.284 ± 0.003 | – | – | – | –
x1 = 0.8516 | – | 81.9 ± 1.8 mPa·s | – | 48.7 ± 1 | 40.3 ± 0.85
x1 = 0.8954 | – | 87.5 ± 2 mPa·s | 69.6 ± 1.5 | 52.5 ± 1.1 | 43.72 ± 0.92
x1 = 0.9155 | – | 82.7 ± 1.6 mPa·s | – | – | –
x1 = 0.9373 | – | 92.9 ± 2.1 mPa·s | 74.1 ± 1.6 | 56.2 ± 1.2 | 46.9 ± 0.99
x1 = 0.9687 | – | 97.1 ± 2.2 mPa·s | 77.5 ± 1.7 | 59 ± 1.2 | 49.4 ± 1
x1 = 1 | 0.243 ± 0.002 | 101 ± 2 mPa·s and 104.7 ± 2.6 mPa·s | 80.7 ± 1.8 | 61.5 ± 1.3 | 51.5 ± 1.1
